Test results: patent US20080009418A1, “Selective Inhibitors” (Alchemia LTD., priority 2004, published 2008)

Columns and labels:
Mouse urotensin (mUR2) = molecular target: T1, Mouse urotensin (mUR2) (Mus musculus, UniProt Q8VIH9); assay: Radioligand binding, mouse urotensin mUR2 membranes, FlashPlate, [125I]-Urotensin II; conditions: compound at 10 μM; [125I]-Urotensin II
T1 construct: purchased Perkin Elmer Biosignal
T1 sequence (Q8VIH9 1-385): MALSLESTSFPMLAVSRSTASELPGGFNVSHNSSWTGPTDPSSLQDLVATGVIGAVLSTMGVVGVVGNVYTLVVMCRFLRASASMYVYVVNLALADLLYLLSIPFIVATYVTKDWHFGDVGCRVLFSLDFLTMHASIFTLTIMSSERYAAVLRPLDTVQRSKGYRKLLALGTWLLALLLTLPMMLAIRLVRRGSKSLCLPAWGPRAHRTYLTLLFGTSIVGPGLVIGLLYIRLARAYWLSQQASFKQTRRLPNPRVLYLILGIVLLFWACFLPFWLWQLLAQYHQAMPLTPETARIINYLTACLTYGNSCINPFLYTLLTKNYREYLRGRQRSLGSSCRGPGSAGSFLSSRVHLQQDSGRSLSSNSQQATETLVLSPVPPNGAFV
In short: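 Cloned mouse urotensin (mUR2) receptor membranes from Perkin Elmer Biosignal were immobilized in FlashPlate microplates using a proprietary coating. Each well got 19.5 μl buffer, then 0.5 μl of DMSO, reference ligand, or compound. Adding 5 μl of [125I]-Urotensin II, diluted to 5× final concentration in binding buffer, started binding. Plates were sealed with TopSeal-A and incubated 1 hour at room temperature in the dark. Wells were counted for 30 seconds each on a TopCount after a 60-second delay, and percentage inhibition was calculated.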

Human δ-opioid (DOP) = molecular target: T2, Human δ-opioid (DOP) (Homo sapiens, UniProt P41143); assay: Radioligand binding, human δ-opioid (DOP) membranes, FlashPlate, [3H]-Bremazocine; conditions: compound at 10 μM; [3H]-Bremazocine
T2 construct: purchased Perkin Elmer Biosignal
In short: (§1)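 Cloned human receptor membranes were coated onto FlashPlate wells and incubated with radioligand and compound (added from a 0.5 mM DMSO daughter plate) for 1 hour at room temperature in the dark. Scintillation counting gave percent inhibition, with DMSO defining total and reference ligand defining non-specific binding.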

Human Melanocortin (MC3) = molecular target: T3, Human Melanocortin (MC3) (Homo sapiens, UniProt P41968); assay: Radioligand binding, human melanocortin MC3 membranes, FlashPlate, [125I]-NDP-αMSH; conditions: compound at 10 μM; [125I]-NDP-αMSH
T3 construct: purchased Perkin Elmer Biosignal
In short: as §1

Human opioid (ORL1) = molecular target: T4, Human opioid (ORL1) (Homo sapiens, UniProt P41146); assay: Radioligand binding, human opioid ORL1 membranes, FlashPlate, [125I]-Nociceptin; conditions: compound at 10 μM; [125I]-Nociceptin
T4 construct: purchased Perkin Elmer Biosignal
In short: as §1

Human neurokinin (NK1) = molecular target: T5, Human neurokinin (NK1) (Homo sapiens, UniProt P25103); assay: Radioligand binding, human neurokinin NK1 membranes, filtration, [125I]-Substance P; conditions: compound at 10 μM; [125I]-Substance P
T5 construct: purchased Perkin Elmer Biosignal
In short: (§2)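 Percent inhibition of radioligand binding measured on recombinant human membranes: NK1 with [125I]-Substance P, KOP with [3H]-Diprenorphine. Incubation 1 h at room temperature, then harvest onto 0.3% PEI-soaked filters, cold Tris-HCl pH 7.4 washes and scintillation counting; non-specific binding from reference ligand wells.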

Human melanocortin (MC5) = molecular target: T6, Human melanocortin (MC5) (Homo sapiens, UniProt P33032); assay: Radioligand binding, human melanocortin MC5 membranes, FlashPlate, [125I]-NDP-αMSH; conditions: compound at 10 μM; [125I]-NDP-αMSH
T6 construct: purchased Perkin Elmer Biosignal
In short: as §1

Human Melanocortin (MC4) = molecular target: T7, Human Melanocortin (MC4) (Homo sapiens, UniProt P32245); assay: Radioligand binding, human melanocortin MC4 membranes, FlashPlate, [125I]-NDP-αMSH; conditions: compound at 10 μM; [125I]-NDP-αMSH
T7 construct: purchased Perkin Elmer Biosignal
In short: as §1

[1] = molecular target: T8, Human melanin-concentrating hormone (MCH1) (Homo sapiens, UniProt Q99705); assay: Radioligand binding, human melanin-concentrating hormone MCH1 membranes, FlashPlate, [125I]-S36057; conditions: compound at 10 μM; [125I]-S36057
T8 construct: purchased Perkin Elmer Biosignal
In short: as §1

[2] = molecular target: T9, Human neuropeptide Y (NPY-Y1) (Homo sapiens, UniProt P25929); assay: Radioligand binding, human neuropeptide Y NPY-Y1 membranes, FlashPlate, [125I]-PYY; conditions: compound at 10 μM; [125I]-PYY
T9 construct: purchased Perkin Elmer Biosignal
T9 sequence (P25929 1-384): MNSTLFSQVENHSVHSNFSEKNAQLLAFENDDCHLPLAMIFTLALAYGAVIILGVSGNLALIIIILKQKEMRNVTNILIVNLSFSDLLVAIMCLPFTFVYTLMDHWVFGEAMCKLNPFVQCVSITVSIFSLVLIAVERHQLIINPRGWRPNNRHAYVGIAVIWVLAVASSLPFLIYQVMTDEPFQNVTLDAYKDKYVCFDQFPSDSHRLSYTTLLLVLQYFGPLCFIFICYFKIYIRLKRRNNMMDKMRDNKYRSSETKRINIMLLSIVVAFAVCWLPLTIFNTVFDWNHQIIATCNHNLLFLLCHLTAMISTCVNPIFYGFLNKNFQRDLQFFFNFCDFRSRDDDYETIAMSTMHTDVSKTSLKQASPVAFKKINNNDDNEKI
In short: as §1

Human μ-opioid (MOP) = molecular target: T10, Human μ-opioid (MOP) (Homo sapiens, UniProt P35372); assay: Radioligand binding, human μ-opioid (MOP) membranes, FlashPlate, [3H]-Naloxone; conditions: compound at 10 μM; [3H]-Naloxone
T10 construct: purchased Perkin Elmer Biosignal
In short: as §1

Human κ-Opioid (KOP) = molecular target: T11, Human κ-Opioid (KOP) (Homo sapiens, UniProt P41145); assay: Radioligand binding, human κ-opioid (KOP) membranes, filtration, [3H]-Diprenorphine; conditions: compound at 10 μM; [3H]-Diprenorphine
T11 construct: purchased Perkin Elmer Biosignal
In short: as §2

T6 sequence (P33032 whole entry): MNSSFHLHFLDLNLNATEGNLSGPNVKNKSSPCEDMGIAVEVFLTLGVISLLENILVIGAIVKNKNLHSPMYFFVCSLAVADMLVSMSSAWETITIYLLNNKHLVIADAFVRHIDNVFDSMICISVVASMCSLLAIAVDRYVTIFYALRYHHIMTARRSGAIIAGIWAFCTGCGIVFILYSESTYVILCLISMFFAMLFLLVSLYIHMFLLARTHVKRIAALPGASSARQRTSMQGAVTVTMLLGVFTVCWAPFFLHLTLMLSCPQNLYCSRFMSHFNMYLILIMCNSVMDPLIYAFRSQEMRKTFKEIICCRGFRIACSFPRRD
T4 sequence (P41146 whole entry): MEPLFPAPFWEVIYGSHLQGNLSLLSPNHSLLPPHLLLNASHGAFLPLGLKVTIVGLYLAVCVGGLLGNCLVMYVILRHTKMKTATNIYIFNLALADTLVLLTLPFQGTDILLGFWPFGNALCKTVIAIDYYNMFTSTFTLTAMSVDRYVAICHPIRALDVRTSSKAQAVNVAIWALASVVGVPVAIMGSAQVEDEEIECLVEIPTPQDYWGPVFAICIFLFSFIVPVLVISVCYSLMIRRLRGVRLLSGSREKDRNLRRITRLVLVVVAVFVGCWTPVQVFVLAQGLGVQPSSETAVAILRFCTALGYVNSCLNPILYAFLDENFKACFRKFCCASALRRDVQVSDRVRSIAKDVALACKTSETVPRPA
T2 sequence (P41143 whole entry): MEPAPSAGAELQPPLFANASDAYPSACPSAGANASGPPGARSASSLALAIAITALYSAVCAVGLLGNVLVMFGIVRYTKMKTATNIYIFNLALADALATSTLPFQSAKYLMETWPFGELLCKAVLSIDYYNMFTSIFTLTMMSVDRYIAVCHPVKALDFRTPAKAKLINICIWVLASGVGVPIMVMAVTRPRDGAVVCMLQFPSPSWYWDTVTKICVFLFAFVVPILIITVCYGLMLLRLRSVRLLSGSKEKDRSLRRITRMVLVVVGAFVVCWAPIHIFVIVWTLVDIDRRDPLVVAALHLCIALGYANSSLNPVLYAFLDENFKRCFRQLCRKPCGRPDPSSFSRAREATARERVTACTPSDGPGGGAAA
T5 sequence (P25103 whole entry): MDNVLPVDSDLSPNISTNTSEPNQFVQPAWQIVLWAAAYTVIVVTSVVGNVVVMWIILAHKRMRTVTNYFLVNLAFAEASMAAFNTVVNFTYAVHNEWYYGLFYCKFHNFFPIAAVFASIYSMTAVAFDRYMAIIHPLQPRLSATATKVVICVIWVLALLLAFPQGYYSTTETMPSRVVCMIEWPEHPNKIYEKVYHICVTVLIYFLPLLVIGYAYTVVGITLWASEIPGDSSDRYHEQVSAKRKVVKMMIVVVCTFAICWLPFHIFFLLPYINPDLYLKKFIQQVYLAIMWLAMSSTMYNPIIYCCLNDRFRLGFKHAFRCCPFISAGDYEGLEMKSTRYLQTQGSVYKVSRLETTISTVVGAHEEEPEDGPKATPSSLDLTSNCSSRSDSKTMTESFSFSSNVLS
T8 sequence (Q99705 whole entry): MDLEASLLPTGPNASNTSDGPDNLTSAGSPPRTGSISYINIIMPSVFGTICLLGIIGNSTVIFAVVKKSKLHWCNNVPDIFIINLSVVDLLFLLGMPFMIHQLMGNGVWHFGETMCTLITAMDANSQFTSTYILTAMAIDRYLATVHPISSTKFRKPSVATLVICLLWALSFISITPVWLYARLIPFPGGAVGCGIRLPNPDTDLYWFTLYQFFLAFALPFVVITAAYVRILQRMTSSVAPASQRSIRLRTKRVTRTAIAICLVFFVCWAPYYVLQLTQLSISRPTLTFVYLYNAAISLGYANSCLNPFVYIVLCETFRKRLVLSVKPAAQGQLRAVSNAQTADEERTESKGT
T7 sequence (P32245 whole entry): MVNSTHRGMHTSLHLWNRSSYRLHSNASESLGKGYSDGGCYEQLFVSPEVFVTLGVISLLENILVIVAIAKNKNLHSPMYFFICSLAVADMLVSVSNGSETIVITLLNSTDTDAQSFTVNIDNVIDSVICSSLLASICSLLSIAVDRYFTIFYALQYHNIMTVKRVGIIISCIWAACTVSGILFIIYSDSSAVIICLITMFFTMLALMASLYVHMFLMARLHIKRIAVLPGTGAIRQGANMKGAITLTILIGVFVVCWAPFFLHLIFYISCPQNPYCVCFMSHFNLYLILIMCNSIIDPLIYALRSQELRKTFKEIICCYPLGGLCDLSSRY
T10 sequence (P35372 whole entry): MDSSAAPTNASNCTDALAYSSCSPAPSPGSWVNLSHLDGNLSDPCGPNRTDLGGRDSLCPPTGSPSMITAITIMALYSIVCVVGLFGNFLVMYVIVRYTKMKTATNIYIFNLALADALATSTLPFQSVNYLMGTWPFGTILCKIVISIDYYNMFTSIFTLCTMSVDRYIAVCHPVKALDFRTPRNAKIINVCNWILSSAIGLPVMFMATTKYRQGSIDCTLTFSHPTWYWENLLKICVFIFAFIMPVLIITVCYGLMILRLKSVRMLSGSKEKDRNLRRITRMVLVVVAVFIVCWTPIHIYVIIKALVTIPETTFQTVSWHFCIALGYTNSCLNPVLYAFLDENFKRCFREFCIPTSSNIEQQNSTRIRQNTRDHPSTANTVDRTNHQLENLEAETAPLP
T3 sequence (P41968 whole entry): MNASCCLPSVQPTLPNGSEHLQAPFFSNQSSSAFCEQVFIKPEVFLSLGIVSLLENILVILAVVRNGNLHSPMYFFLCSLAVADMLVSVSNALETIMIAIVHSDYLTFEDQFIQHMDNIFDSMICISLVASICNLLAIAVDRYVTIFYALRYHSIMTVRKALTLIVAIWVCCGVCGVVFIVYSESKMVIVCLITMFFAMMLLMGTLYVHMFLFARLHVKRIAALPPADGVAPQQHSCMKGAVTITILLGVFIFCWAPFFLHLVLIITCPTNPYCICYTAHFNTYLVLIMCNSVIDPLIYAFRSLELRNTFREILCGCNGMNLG
T11 sequence (P41145 whole entry): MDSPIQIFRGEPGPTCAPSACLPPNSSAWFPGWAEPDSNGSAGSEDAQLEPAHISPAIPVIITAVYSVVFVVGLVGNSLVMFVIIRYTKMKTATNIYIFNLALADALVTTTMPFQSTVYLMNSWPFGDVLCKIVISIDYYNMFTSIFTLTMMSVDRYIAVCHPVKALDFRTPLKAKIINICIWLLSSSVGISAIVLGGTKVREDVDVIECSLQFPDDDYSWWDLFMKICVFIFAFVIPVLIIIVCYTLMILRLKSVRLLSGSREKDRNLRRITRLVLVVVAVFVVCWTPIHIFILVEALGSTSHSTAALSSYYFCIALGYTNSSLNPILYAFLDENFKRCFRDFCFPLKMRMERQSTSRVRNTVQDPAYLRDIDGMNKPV

SMILES	A11: inhibition of radioligand binding, mouse urotensin (mUR2) (Mouse urotensin (mUR2))	A1: inhibition of radioligand binding, human δ-opioid (DOP) (Human δ-opioid (DOP))	A3: inhibition of radioligand binding, human melanocortin (MC3) (Human Melanocortin (MC3))	A10: inhibition of radioligand binding, human opioid (ORL1) (Human opioid (ORL1))	A8: inhibition of radioligand binding, human neurokinin (NK1) (Human neurokinin (NK1))	A5: inhibition of radioligand binding, human melanocortin (MC5) (Human melanocortin (MC5))	A4: inhibition of radioligand binding, human melanocortin (MC4) (Human Melanocortin (MC4))	A6: inhibition of radioligand binding, human melanin-concentrating hormone (MCH1) [1]	A9: inhibition of radioligand binding, human neuropeptide Y (NPY-Y1) [2]	A7: inhibition of radioligand binding, human μ-opioid (MOP) (Human μ-opioid (MOP))	A2: inhibition of radioligand binding, human κ-opioid (KOP) (Human κ-Opioid (KOP))
NCCC(=O)NC1C(OCc2ccc(Cl)cc2)OC(COCc2ccccc2)C(O)C1OCc1ccccc1 (single isomer, unassigned) [compound 486]	− (“−” indicates less than 50% inhibition at 10 μM)	− (“−” indicates less than 50% inhibition at 10 μM)	− (“−” indicates less than 50% inhibition at 10 μM)	− (“−” indicates less than 50% inhibition at 10 μM)	+ (“+” indicates greater than 50% inhibition at 10 μM)	− (“−” indicates less than 50% inhibition at 10 μM)	− (“−” indicates less than 50% inhibition at 10 μM)	− (“−” indicates less than 50% inhibition at 10 μM)	− (“−” indicates less than 50% inhibition at 10 μM)	− (“−” indicates less than 50% inhibition at 10 μM)	− (“−” indicates less than 50% inhibition at 10 μM)
NCCCC(=O)NC1C(OCc2ccccc2)OC(COCc2ccc(Cl)cc2)C(O)C1OCc1ccc(Cl)cc1 (stereo not shown) [compound 374]	− (“−” indicates less than 50% inhibition at 10 μM)	− (“−” indicates less than 50% inhibition at 10 μM)	− (“−” indicates less than 50% inhibition at 10 μM)	− (“−” indicates less than 50% inhibition at 10 μM)	+ (“+” indicates greater than 50% inhibition at 10 μM)	+ (“+” indicates greater than 50% inhibition at 10 μM)	+ (“+” indicates greater than 50% inhibition at 10 μM)	− (“−” indicates less than 50% inhibition at 10 μM)	− (“−” indicates less than 50% inhibition at 10 μM)	− (“−” indicates less than 50% inhibition at 10 μM)	− (“−” indicates less than 50% inhibition at 10 μM)
